From patent US20260176302A1, “SARS-CoV-2 Binding Polypeptide” (Leyden Laboratories B.V., priority 2022, published 2026)

Test system: SARS-CoV-2 B.1.351 variant
Type: in vivo, Mouse (Mus musculus)

## IINPRGDGTRYAQKFQG [SEQ ID NO: 082]
[…], control median survival 7 days
  survival time vs control group (log-rank test): significant improvement in survival time
mouse, in vivo
  clinical signs (score 0-4): No clinical signs
  survival proportion at day 21: 100%
mouse, in vivo, listed as test polypeptide
  change in bodyweight (AUC) / weight loss vs control group: significant reduction in weight loss
